Reference: patent US20210045385A1, “PYRIDAZINONE-SUBSTITUTED KETOXIMES AS HERBICIDES” (FMC Corporation, priority 2018, published 2021)

Experiments:
Type in all cases: in vivo
[1] = test system: wheat (Triticum aestivum); assay: Test C postemergence, visual plant response rating
In short: (§1)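 Visual injury on a 0 (no effect) to 100 (complete control) scale versus untreated controls, scored approximately 10 d after treatment under greenhouse conditions. Treatments used surfactant-containing non-phytotoxic solvent formulations, sprayed onto loam–sand soil preemergence or onto one- to two-leaf plants 2–10 cm tall postemergence.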

[2] = test system: blackgrass (Alopecurus myosuroides); assay: Test C postemergence, visual plant response rating
In short: as §1

[3] = test system: galium (catchweed bedstraw, Galium aparine); assay: Test C postemergence, visual plant response rating
In short: as §1

[4] = test system: kochia (Bassia scoparia); assay: Test C postemergence, visual plant response rating
In short: as §1

[5] = test system: Italian ryegrass (Lolium mutiflorum); assay: Test C postemergence, visual plant response rating
In short: as §1

[6] = test system: pigweed (Amaranthus retroflexus); assay: Test C postemergence, visual plant response rating
In short: as §1

[7] = test system: ragweed (common ragweed, Ambrosia artemisiifolia); assay: Test C postemergence, visual plant response rating
In short: as §1

[8] = test system: barnyardgrass (Echinochloa crus-galli); assay: Test C postemergence, visual plant response rating
In short: as §1

[9] = test system: foxtail, giant (giant foxtail, Setaria faberi); assay: Test C postemergence, visual plant response rating
In short: as §1

[10] = test system: corn (Zea mays); assay: Test C postemergence, visual plant response rating
In short: as §1

[11] = test system: sedge umbrella (small-flower umbrella sedge, Cyperus difformis); assay: Test D flooded paddy test, visual plant response rating; conditions: 250 g ai/ha, scale 0 to 100 (0 no effect, 100 complete control), 13 to 15 d
In short: (§2)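 Rating is visual, on a 0 (no effect) to 100 (complete control) scale versus controls, taken 13 to 15 d after treatment in a greenhouse. Treatment went into paddy water kept 3 cm above the soil surface, with plants at the 2-leaf stage.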

[12] = test system: duck salad (Heteranthera limosa); assay: as above; conditions: 250 g ai/ha, scale 0 to 100 (0 no effect, 100 complete control), 13 to 15 d
In short: as §2

[13] = test system: rice (Oryza sativa); assay: as above; conditions: 250 g ai/ha, scale 0 to 100 (0 no effect, 100 complete control), 13 to 15 d
In short: as §2

[14] = test system: barnyardgrass (Echinochloa crus-galli); assay: as above; conditions: 250 g ai/ha, scale 0 to 100 (0 no effect, 100 complete control), 13 to 15 d
In short: as §2

[15] = test system: kochia (Bassia scoparia); assay: Test C preemergence, visual plant response rating; conditions: Test C, 0 is no effect, 100 is complete control
In short: as §1

[16] = test system: Italian ryegrass (Lolium mutiflorum); assay: Test C preemergence, visual plant response rating; conditions: Test C, 0 is no effect, 100 is complete control
In short: as §1

[17] = test system: pigweed (Amaranthus retroflexus); assay: Test C preemergence, visual plant response rating; conditions: Test C, 0 is no effect, 100 is complete control
In short: as §1

[18] = test system: ragweed (common ragweed, Ambrosia artemisiifolia); assay: Test C preemergence, visual plant response rating; conditions: Test C, 0 is no effect, 100 is complete control
In short: as §1

[19] = test system: barnyardgrass (Echinochloa crus-galli); assay: Test C preemergence, visual plant response rating; conditions: Test C, 0 is no effect, 100 is complete control
In short: as §1

[20] = test system: foxtail, giant (giant foxtail, Setaria faberi); assay: Test C preemergence, visual plant response rating; conditions: Test C, 0 is no effect, 100 is complete control
In short: as §1

[21] = Test C, postemergence, 125 g ai/ha

Structure (SMILES)	Wheat plant response rating (0 to 100 scale) ([1]; Postemergence, 31 g ai/ha)	Wheat plant response rating (0 to 100 scale) [1, 21]	Blackgrass plant response rating (0 to 100 scale) ([2]; Postemergence, 31 g ai/ha)	Blackgrass plant response rating (0 to 100 scale) [2, 21]	Galium plant response rating (0 to 100 scale) ([3]; Postemergence, 31 g ai/ha)	Galium plant response rating (0 to 100 scale) [3, 21]	Kochia plant response rating (0 to 100 scale) ([4]; Postemergence, 31 g ai/ha)	Kochia plant response rating (0 to 100 scale) [4, 21]	Ryegrass, Italian plant response rating (0 to 100 scale) ([5]; Postemergence, 31 g ai/ha)	Ryegrass, Italian plant response rating (0 to 100 scale) [5, 21]	Pigweed plant response rating (0 to 100 scale) ([6]; Postemergence, 31 g ai/ha)	Pigweed plant response rating (0 to 100 scale) [6, 21]	Ragweed plant response rating (0 to 100 scale) ([7]; Postemergence, 31 g ai/ha)	Ragweed plant response rating (0 to 100 scale) [7, 21]	Barnyardgrass plant response rating (0 to 100 scale) ([8]; Postemergence, 31 g ai/ha)	Barnyardgrass plant response rating (0 to 100 scale) [8, 21]	Foxtail, Giant plant response rating (0 to 100 scale) ([9]; Postemergence, 31 g ai/ha)	Foxtail, Giant plant response rating (0 to 100 scale) [9, 21]	Corn plant response rating (0 to 100 scale) ([10]; Postemergence, 31 g ai/ha)	Corn plant response rating (0 to 100 scale) [10, 21]	also measured
CON=C(c1cc(F)cc(F)c1F)c1c(O)c(C)nn(C)c1=O [Compound 226]	0	0	0	0	50	90	20	60	20	50	30	50	30	70	10	20	30	40	0	0	Plant response rating, Sedge, Umbrella (Flood) [11]: 0; Plant response rating, Ducksalad (Flood) [12]: 0; Plant response rating, Rice (Flood) [13]: 0; Plant response rating, Barnyardgrass (Flood) [14]: 0; Kochia plant response rating (0 to 100 scale) ([15]; 31 g ai/ha): 0; Kochia plant response rating (0 to 100 scale) ([15]; 125 g ai/ha): 40; Ryegrass, Italian plant response rating (0 to 100 scale) ([16]; 31 g ai/ha): 30; Ryegrass, Italian plant response rating (0 to 100 scale) ([16]; 125 g ai/ha): 70; Pigweed plant response rating (0 to 100 scale) ([17]; 31 g ai/ha): 30; Pigweed plant response rating (0 to 100 scale) ([17]; 125 g ai/ha): 70; Ragweed plant response rating (0 to 100 scale) ([18]; 31 g ai/ha): 30; Ragweed plant response rating (0 to 100 scale) ([18]; 125 g ai/ha): 70; Barnyardgrass plant response rating (0 to 100 scale) ([19]; 31 g ai/ha): 0; Barnyardgrass plant response rating (0 to 100 scale) ([19]; 125 g ai/ha): 0; Foxtail, Giant plant response rating (0 to 100 scale) ([20]; 31 g ai/ha): 10; Foxtail, Giant plant response rating (0 to 100 scale) ([20]; 125 g ai/ha): 10
CO/N=C(\c1c(O)c(Cl)nn(C)c1=O)c1ccc(F)c2ccccc12 [Compound 208]	0	0	0	30	90	100	50	70	30	80	30	40	100	100	30	60	20	60	0	10	Plant response rating, Sedge, Umbrella (Flood) [11]: 0; Plant response rating, Ducksalad (Flood) [12]: 0; Plant response rating, Rice (Flood) [13]: 0; Plant response rating, Barnyardgrass (Flood) [14]: 0; Kochia plant response rating (0 to 100 scale) ([15]; 31 g ai/ha): 0; Kochia plant response rating (0 to 100 scale) ([15]; 125 g ai/ha): 20; Ryegrass, Italian plant response rating (0 to 100 scale) ([16]; 31 g ai/ha): 10; Ryegrass, Italian plant response rating (0 to 100 scale) ([16]; 125 g ai/ha): 70; Pigweed plant response rating (0 to 100 scale) ([17]; 31 g ai/ha): 40; Pigweed plant response rating (0 to 100 scale) ([17]; 125 g ai/ha): 100; Ragweed plant response rating (0 to 100 scale) ([18]; 31 g ai/ha): 60; Ragweed plant response rating (0 to 100 scale) ([18]; 125 g ai/ha): 100; Barnyardgrass plant response rating (0 to 100 scale) ([19]; 31 g ai/ha): 0; Barnyardgrass plant response rating (0 to 100 scale) ([19]; 125 g ai/ha): 80; Foxtail, Giant plant response rating (0 to 100 scale) ([20]; 31 g ai/ha): 50; Foxtail, Giant plant response rating (0 to 100 scale) ([20]; 125 g ai/ha): 90
CO/N=C(\c1ccc(Cl)c(Cl)c1)c1c(O)c(C)nn(C)c1=O [Compound 217]	0	0	0	0	40	80	30	60	0	0	10	20	0	20	0	20	0	0	0	0	Plant response rating, Sedge, Umbrella (Flood) [11]: 0; Plant response rating, Ducksalad (Flood) [12]: 0; Plant response rating, Rice (Flood) [13]: 0; Plant response rating, Barnyardgrass (Flood) [14]: 0; Kochia plant response rating (0 to 100 scale) ([15]; 31 g ai/ha): 0; Kochia plant response rating (0 to 100 scale) ([15]; 125 g ai/ha): 20; Ryegrass, Italian plant response rating (0 to 100 scale) ([16]; 31 g ai/ha): 0; Ryegrass, Italian plant response rating (0 to 100 scale) ([16]; 125 g ai/ha): 0; Pigweed plant response rating (0 to 100 scale) ([17]; 31 g ai/ha): 0; Pigweed plant response rating (0 to 100 scale) ([17]; 125 g ai/ha): 0; Ragweed plant response rating (0 to 100 scale) ([18]; 31 g ai/ha): 0; Ragweed plant response rating (0 to 100 scale) ([18]; 125 g ai/ha): 0; Barnyardgrass plant response rating (0 to 100 scale) ([19]; 31 g ai/ha): 0; Barnyardgrass plant response rating (0 to 100 scale) ([19]; 125 g ai/ha): 0; Foxtail, Giant plant response rating (0 to 100 scale) ([20]; 31 g ai/ha): 0; Foxtail, Giant plant response rating (0 to 100 scale) ([20]; 125 g ai/ha): 0
CON=C(c1cc(F)cc(F)c1F)c1c(O)c(C)nn(C)c1=O [Compound 227]	0	0	0	0	60	80	30	70	20	40	30	50	20	50	0	20	0	0	0	0	Plant response rating, Sedge, Umbrella (Flood) [11]: 0; Plant response rating, Ducksalad (Flood) [12]: 0; Plant response rating, Rice (Flood) [13]: 0; Plant response rating, Barnyardgrass (Flood) [14]: 0; Kochia plant response rating (0 to 100 scale) ([15]; 31 g ai/ha): 0; Kochia plant response rating (0 to 100 scale) ([15]; 125 g ai/ha): 10; Ryegrass, Italian plant response rating (0 to 100 scale) ([16]; 31 g ai/ha): 30; Ryegrass, Italian plant response rating (0 to 100 scale) ([16]; 125 g ai/ha): 60; Pigweed plant response rating (0 to 100 scale) ([17]; 31 g ai/ha): 0; Pigweed plant response rating (0 to 100 scale) ([17]; 125 g ai/ha): 10; Ragweed plant response rating (0 to 100 scale) ([18]; 31 g ai/ha): 20; Ragweed plant response rating (0 to 100 scale) ([18]; 125 g ai/ha): 80; Barnyardgrass plant response rating (0 to 100 scale) ([19]; 31 g ai/ha): 0; Barnyardgrass plant response rating (0 to 100 scale) ([19]; 125 g ai/ha): 20; Foxtail, Giant plant response rating (0 to 100 scale) ([20]; 31 g ai/ha): 0; Foxtail, Giant plant response rating (0 to 100 scale) ([20]; 125 g ai/ha): 30
